Three compounds from patent US20250297135A1, “CERIA AND HYDROXAMIC ACID CMP COMPOSITION” (ENTEGRIS, INC., priority 2024, published 2025) can be followed below.

The conditions of data set [1]: pH 5.5.
Procedure: (§1) To measure the aqueous solubility, a supersaturated solution of each hydroxamic acid compound was prepared in deionized water. The pH was adjusted to 5.5 using nitric acid and the supersaturated solution was stirred overnight. Excess solids were removed via filtration and the hydroxamic acid compound in solution was quantified using ^1H NMR with a t-BuOH standard.
The nature of data set [2]: Aqueous solubility from supersaturated solution, 1H NMR quantification. As to conditions: deionized water, pH adjusted to 5.5 using nitric acid, stirred overnight, filtered.
Procedure: as §1

Read-outs that look alike come from different tables or passages of the source.

For `O=C(NO)c1ccc(F)cc1` [4FBHA, 4-Fluorobenzohydroxamic acid], the “Aqueous Solubility” value in data set [1] came out at 1.0%.
For `COc1ccc(CCCCC(=O)NO)cc1` [4pAnisBuHA, 4-(p-anisyl) butyrohydroxamic acid], the “Aqueous Solubility” value in data set [1] was 0.5%.
Turning to `Cc1ccccc1C(=O)NO` [4MeBHA, methylbenzo hydroxamic acid], the “Aqueous Solubility” value in data set [2] is on record as 0.5%.
